Patent US11306098B2, “Substituted pyrrolo[1,2-a]pyrazines and pyrrolo[1,2-a][1,4]diazepines as TREX1 inhibitors” (VENENUM BIODESIGN, LLC, priority 2019, dated 2022)

Key:
[1] = biological target: human TREX1 (Homo sapiens (Human), UniProt Q9NSU2); assay: TREX1 Exonuclease Assay (human enzyme); type: biochemical; details: human TREX1 0.5 nM, FAM/BHQ1-labeled DNA oligonucleotide
Experimental: (§1) The TREX1 Exonuclease assay is an exemplary in vitro assay for measuring the activity of the TREX1 inhibitors of the present invention. In this assay, TREX1 exonuclease activity was evaluated by measuring the increase in fluorescence resulting from TREX1-catalyzed removal of a quencher from the 3′ end of a FAM-labeled DNA oligonucleotide (5′FAM-CCA CGA GAG CGT-BHQ1-3′). The assay was conducted using Wild Type (WT) human or murine TREX1 enzyme constructs corresponding to amino acids 55-297 of UniProt ID Q9NSU2-1 (SEQ ID NO: 1), or amino acids 1-242 of UniProt ID Q91XB0-1 (SEQ ID NO: 2), respectively. See, e.g., Example A.
(§2) For human TREX1, the nucleotide sequence of the gene construct was codon optimized for expression in the bacterial host. The sequence was incorporated into the pMAL-c5e vector (NEB) downstream of a solubility-promoting MBP (maltose binding protein) fusion partner. The fusion protein product was expressed in E. coli strain BL21 (DE3) (Millipore) and purified in a series of chromatographic steps. Initial steps were conducted using a dextrin sepharose affinity column followed by a Q-sepharose ion exchange column (both GE Healthcare). After the second column the MBP partner was removed by incubation with enterokinase (NEB). Further purification was carried out with the second application of a Q-sepharose column followed by a Superdex 75 (GE Healthcare) size exclusion column. Finally, a heparin sepharose column (GE Healthcare) was applied to remove contaminating nucleotides. Similar methods were used in the preparation of the murine TREX1 enzyme and are described in Example B set forth below.
(§3) To evaluate the effect of compounds on TREX1 activity, test compounds were serially diluted (11-point, 3-fold) from 10 mM stock solutions and delivered to 384-well low-volume assay plates in 80 nL DMSO using an acoustic dispenser. Next, 4 μL of human TREX1 (0.5 nM), or murine TREX1 (1 nM), diluted in assay buffer (20 mM Tris pH 7.5, 5 mM MgCl2, 100 μg/mL BSA, 0.002% Triton X-100, 2 mM DTT), was added to the assay plate. After incubating for 30 minutes, 4 μL of labeled DNA oligonucleotide (500 nM) in assay buffer was added to initiate TREX1 exonuclease activity. The reaction was allowed to proceed for 45 minutes at room temperature prior to the addition of 4 μL of 150 mM EDTA to halt TREX1 activity. Assay plates were equilibrated for an additional 30 minutes and read on an EnVision Plate Reader (Perkin Elmer) to measure fluorescence emission at 535 nm following excitation at 485 nm. Fluorescence was plotted as a function of log molar compound concentration and fit to four-parameter dose-response equation to determine compound IC50.

[2] = biological target: murine TREX1 (Mus musculus (Mouse), UniProt Q91XB0); assay: TREX1 Exonuclease Assay (murine enzyme); type: biochemical; details: murine TREX1 1 nM, FAM/BHQ1-labeled DNA oligonucleotide
Sequence of murine TREX1 (Q91XB0 1-242): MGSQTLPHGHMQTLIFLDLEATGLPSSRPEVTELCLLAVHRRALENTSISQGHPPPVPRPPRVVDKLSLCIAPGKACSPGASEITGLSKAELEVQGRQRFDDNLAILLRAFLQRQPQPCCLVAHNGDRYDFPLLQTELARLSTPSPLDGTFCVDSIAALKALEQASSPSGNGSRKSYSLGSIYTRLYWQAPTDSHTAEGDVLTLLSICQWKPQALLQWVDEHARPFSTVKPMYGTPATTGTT
Experimental: as §1, §2, §3

[3] = system: THP1 Dual cells (ISRE Lucia reporter, cGAS-STING pathway); assay: THP1 monocyte assay, ISRE Lucia luciferase reporter; type: cell-based, human; details: 48 hours, luciferase signal versus control wells without compound
Text: Example C is a cell-based assay for TREX1 inhibitors using THP1 Dual™ cells (Invivogen), a human monocyte cell line that has stable integration of an Interferon Stimulated Response Element (ISRE) Lucia reporter gene. The Lucia gene encodes a secreted luciferase reporter protein, under the control of an ISG54 minimal promoter in conjunction with five IFN-stimulated response elements. Activation of the cGAS-STING pathway in THP1 Dual™ cells leads to enhanced luciferase secretion and increased luminescence.
A cell-based assay was established using THP1 Dual™ cells (Invivogen), a human monocyte cell line that has stable integration of an Interferon Stimulated Response Element (ISRE) Lucia reporter gene. The Lucia gene encodes a secreted luciferase reporter protein, under the control of an ISG54 minimal promoter in conjunction with five IFN-stimulated response elements. Activation of the cGAS-STING pathway in these cells leads to enhanced luciferase secretion. The assay was conducted in standard 384-well white tissue culture plates. Cells (25,000 in 25 μL RPMI 1640 containing 10% Heat-Inactivated FBS, 1× Glutagro, 10 mM HEPES, 1 mM sodium pyruvate, 1× Pen/Strep, 100 μg/mL Normocin, 100 μg/mL Zeocin, 10 μg/mL Blasticidin) were added to the plate followed by 25 μL of compound in the same media+0.2% DMSO. The assay was incubated for 48 hours at 37° C. in 5% CO2. An aliquot of 5 μl was removed to combine with 12.5 μL of the luciferase detection reagent, QUANTI-Luc™ Gold (Invivogen) in a white 384-well plate. The luminescent signal was then read using an EnVision plate reader (Perkin Elmer). The fold activation was calculated by dividing the signal in wells containing test compound by the signal in the control wells without compound (see Table 7).

[4] = system: interferon stimulated genes (ISGs) in THP1 Dual cells; assay: RT-qPCR assay of interferon stimulated gene expression; type: cell-based, human; details: substance alone, 24 hours, normalized to GAPDH, unstimulated control = 1
Text: Example D is a cell based assay that measures the increase in the expression of interferon stimulated genes (ISG) by RT-qPCR that are induced by TREX1 inhibitors when THP1 Dual™ cells are transfected with double-stranded DNA. The double stranded DNA used to transfect cells was VACV-70 (Invivogen), a 70 base pair oligonucleotide containing viral DNA motifs (Unterholzner L. et al., 2010. IFI16 is an innate immune sensor for intracellular DNA. Nat Immunol. 11(11):997-1004). Activation of cGAS-STING pathway in THP1 Dual™ cells increases the expression of ISGs.
The RT-qPCR assay was used to assess the ability of TREX1 inhibitors to enhance the expression of interferon stimulated genes (ISGs) in cells transfected with double-stranded DNA. The double stranded DNA used to transfect cells was VACV-70 (Invivogen), a 70 base pair oligonucleotide containing viral DNA motifs (Unterholzner L. et al., 2010. IFI16 is an innate immune sensor for intracellular DNA. Nat Immunol. 11(11):997-1004). Human THP1 Dual™ cells (Invivogen), were treated with test compound in the presence or absence of 1,200 ng/mL VACV-70, or with VACV-70 alone, for 24 hours. Cells were harvested by centrifugation and washed with phosphate buffer saline. Total RNA was isolated using Qiagen RNeasy mini kit. Genomic DNA was degraded using Thermo Scientific DNase 1 kit. Total RNA was quantified using a Nanodrop spectrophotometer. Using equal amounts of RNA, cDNA was synthesized using Invitrogen Superstrand III First Strand synthesis kit. Target and reference gene expression levels were determined by RT-qPCR using TaqMan gene expression assays and a Stratagene Mx3005P QPCR system (all reagents were from TaqMan, Applied Biosystems). Data were analyzed by the Comparative CT method. GAPDH was used for normalization. Target genes that were analyzed included interferon stimulated genes (INF-β, CXCL10, IFIT1, IFIT2, IFIT3, IFI44, and IFI44L).

Sequence of human TREX1 (Q9NSU2 1-242): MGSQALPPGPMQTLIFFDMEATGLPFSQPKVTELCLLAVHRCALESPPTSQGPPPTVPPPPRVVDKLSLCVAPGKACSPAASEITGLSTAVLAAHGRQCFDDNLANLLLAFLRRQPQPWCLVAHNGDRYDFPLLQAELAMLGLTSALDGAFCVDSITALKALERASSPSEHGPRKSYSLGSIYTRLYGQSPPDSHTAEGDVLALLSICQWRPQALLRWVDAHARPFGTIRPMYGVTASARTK

| Structure (SMILES) | IC50 [1] | IC50 [2] | Fold activation @ 10 μM [3] | CXCL10 expression [4] | IFI44L expression [4] | IFI44 expression [4] | IFIT1 expression [4] | IFIT2 expression [4] | IFIT3 expression [4] | IFN-β expression [4] |
| --- | --- | --- | --- | --- | --- | --- | --- | --- | --- | --- |
| N[C@@H]1C[C@H]2C(=O)N([C@H](CC(=O)O)C(=O)NCc3ccc(Cl)c(Cl)c3)CCC(CCc3ccccc3)N2C1 (stereo partly drawn) [Example 15] | < 1000 nM | < 1000 nM | 2 | 1 | 20 | 20 | 10 | 32 | 20 | 5 |
| NC(=O)CC[C@H](C(=O)NCc1ccc(Cl)c(Cl)c1)N1CCC(CCc2ccccc2)N2C[C@H](N)C[C@H]2C1=O (stereo partly drawn) [Example 16] | < 1000 nM | < 1000 nM | 4 | 2 | 15 | 14 | 11 | 41 | 25 | 6 |
| N[C@@H]1C[C@H]2C(=O)N([C@H](CCc3nnn[nH]3)C(=O)NCc3ccc(Cl)c(Cl)c3)CCC(CCc3ccccc3)N2C1 (stereo partly drawn) [Example 36] | < 1000 nM | < 1000 nM | 7 | 2 | 16 | 20 | 8 | 26 | 16 | 3 |
